Calls of active or inactive are those of the source. No cut-off for these calls is given here. Bounds are passed on as bounds.

Data set [1] has as its system DU-145. Kind of data set: Inhibition of 5-HT-stimulated human DU145 cells proliferation at 5 to 10 uM incubated for 48 hrs by SRB assay. It is filed as functional, cell-based. For orientation: Sulforhodamine B stains cellular protein and so reports cell mass.
The subject of data set [2] is PC-3. As to the kind of experiment: Inhibition of 5-HT-stimulated human PC3 cells proliferation at 5 to 10 uM incubated for 48 hrs by SRB assay. It is filed as functional, cell-based.
Another data set has as its target D(2) dopamine receptor (Homo sapiens, UniProt P14416). Kind of data set: Displacement of [3H]N-methylspiperone from human dopamine D2 receptor expressed in HEK293 cell membranes incubated for 1 hr by liquid scintillation counting. For orientation: Loss of bound radioactivity is the signal in a displacement assay; it reports binding, not function.
Another data set deals with D(3) dopamine receptor (Homo sapiens, UniProt P35462). Kind of data set: Displacement of [3H]N-methylspiperone from human dopamine D3 receptor expressed in HEK293 cell membranes incubated for 1 hr by liquid scintillation counting.
Chain of D(3) dopamine receptor (P35462 whole entry): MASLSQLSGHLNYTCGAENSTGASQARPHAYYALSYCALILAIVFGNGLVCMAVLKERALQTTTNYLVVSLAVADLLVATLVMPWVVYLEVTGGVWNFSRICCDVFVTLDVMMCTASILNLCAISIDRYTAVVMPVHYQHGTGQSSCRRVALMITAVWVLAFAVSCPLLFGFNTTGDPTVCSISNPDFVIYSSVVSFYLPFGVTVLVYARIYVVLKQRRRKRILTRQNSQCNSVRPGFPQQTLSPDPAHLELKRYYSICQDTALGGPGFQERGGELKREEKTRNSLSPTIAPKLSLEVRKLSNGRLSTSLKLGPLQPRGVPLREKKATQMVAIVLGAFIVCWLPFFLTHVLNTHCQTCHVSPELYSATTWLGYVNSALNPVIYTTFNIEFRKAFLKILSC
For another data set, the target named is T1, D(4) dopamine receptor (Homo sapiens, UniProt P21917).
T1 sequence (P21917 whole entry): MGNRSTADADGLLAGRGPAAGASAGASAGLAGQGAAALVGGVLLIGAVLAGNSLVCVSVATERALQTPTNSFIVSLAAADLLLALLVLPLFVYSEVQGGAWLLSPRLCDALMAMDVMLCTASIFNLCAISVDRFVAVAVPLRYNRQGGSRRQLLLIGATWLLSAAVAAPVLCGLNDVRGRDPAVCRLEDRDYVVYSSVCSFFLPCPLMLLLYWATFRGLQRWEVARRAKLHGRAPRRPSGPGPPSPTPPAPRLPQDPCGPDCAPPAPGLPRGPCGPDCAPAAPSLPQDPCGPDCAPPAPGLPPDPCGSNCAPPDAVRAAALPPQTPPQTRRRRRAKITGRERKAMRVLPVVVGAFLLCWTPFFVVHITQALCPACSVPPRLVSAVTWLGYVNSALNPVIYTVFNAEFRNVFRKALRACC
Kind of data set: Displacement of [3H]N-methylspiperone from human dopamine D4 receptor expressed in HEK293 cell membranes incubated for 1 hr by liquid scintillation counting.

In data set [3] the test system is PC-3. Kind of data set: Growth inhibition of human PC3 cells incubated for 48 hrs by SRB assay. Type of data set: functional. As to conditions: PC-3, 48 h.
Data set [4] concerns DU-145. As to the kind of experiment: Growth inhibition of human DU145 cells incubated for 48 hrs by SRB assay. It is filed as functional. As to conditions: DU-145, 48 h.
The nature of data set [5]: (§1) Growth inhibition of human fibroblast cells incubated for 48 hrs by SRB assay. Type of data set: cell-based. As to conditions: human fibroblast cells.
In a further data set the test system is Fibroblast. The data set is described as §1. As to conditions: fibroblast, 48 h. It is filed as cell-based.
The subject of data set [6] is PC-3. As to the kind of experiment: Inhibition of norepinephrine-stimulated human PC3 cells proliferation at 5 to 10 uM incubated for 48 hrs by SRB assay. It is filed as functional, cell-based.
Data set [7] has as its system DU-145. As to the kind of experiment: Inhibition of norepinephrine-stimulated human DU145 cells proliferation at 5 to 10 uM incubated for 48 hrs by SRB assay. It is filed as functional, cell-based.
The target in data set [8] is T2, 5-hydroxytryptamine receptor 1A (Homo sapiens) (UniProt P08908).
T2 sequence (whole entry): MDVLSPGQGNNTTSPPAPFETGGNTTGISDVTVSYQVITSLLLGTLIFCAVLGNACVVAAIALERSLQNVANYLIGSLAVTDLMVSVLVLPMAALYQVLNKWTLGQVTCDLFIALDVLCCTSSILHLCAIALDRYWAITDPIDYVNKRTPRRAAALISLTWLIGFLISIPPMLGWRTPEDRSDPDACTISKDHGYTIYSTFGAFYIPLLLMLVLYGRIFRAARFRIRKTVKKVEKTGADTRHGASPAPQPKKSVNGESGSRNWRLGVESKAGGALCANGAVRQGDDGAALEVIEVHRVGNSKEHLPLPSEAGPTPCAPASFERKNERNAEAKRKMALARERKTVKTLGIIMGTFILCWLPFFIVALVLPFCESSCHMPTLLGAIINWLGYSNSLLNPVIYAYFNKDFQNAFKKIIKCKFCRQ
As to conditions: HeLa.
Description: Antagonist activity at cloned human 5-HT1A receptor transfected in human HeLa cell membranes preincubated for 20 mins followed by [35S]GTPgammaS addition and measured after 30 mins by liquid scintillation counting

Data set [9] has as its target T3, Alpha-1A adrenergic receptor (Homo sapiens, UniProt P35348).
T3 sequence (P35348 whole entry): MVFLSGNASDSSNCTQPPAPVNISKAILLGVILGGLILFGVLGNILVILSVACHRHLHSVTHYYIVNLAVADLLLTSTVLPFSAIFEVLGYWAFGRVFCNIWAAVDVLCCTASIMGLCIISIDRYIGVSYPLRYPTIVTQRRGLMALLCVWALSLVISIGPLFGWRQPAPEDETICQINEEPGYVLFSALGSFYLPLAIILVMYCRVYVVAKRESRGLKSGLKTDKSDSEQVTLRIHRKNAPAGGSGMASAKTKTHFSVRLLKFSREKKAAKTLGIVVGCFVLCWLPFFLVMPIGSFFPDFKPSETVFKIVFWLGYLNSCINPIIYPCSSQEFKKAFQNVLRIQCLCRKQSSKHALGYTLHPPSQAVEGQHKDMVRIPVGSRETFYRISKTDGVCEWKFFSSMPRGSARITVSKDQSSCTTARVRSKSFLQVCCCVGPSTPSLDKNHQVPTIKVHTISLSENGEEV
Kind of data set: biochemical.
Description: Displacement of [3H]Prazosin from human recombinant alpha 1A adrenergic receptor expressed in CHO cells incubated for 30 mins by radioligand competition binding assay

Data set [10] addresses T4, Alpha-1B adrenergic receptor (Homo sapiens, UniProt P35368).
T4 sequence (P35368 whole entry): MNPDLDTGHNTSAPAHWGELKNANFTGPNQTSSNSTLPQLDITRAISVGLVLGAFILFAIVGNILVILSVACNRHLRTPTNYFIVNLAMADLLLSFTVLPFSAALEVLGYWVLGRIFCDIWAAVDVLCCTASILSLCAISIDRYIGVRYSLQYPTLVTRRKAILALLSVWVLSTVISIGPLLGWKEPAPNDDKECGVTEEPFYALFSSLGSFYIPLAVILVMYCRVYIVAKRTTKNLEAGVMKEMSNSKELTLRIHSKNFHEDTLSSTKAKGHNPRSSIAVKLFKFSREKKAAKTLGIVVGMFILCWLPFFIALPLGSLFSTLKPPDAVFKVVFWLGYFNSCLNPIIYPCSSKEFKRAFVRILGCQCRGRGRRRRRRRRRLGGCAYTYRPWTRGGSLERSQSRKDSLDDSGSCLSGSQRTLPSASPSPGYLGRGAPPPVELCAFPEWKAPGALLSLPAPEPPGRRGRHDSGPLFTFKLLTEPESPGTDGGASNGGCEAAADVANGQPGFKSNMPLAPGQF
As to the kind of experiment: biochemical.
Description: Displacement of [3H]Prazosin from human recombinant alpha 1B adrenergic receptor expressed in CHO cells incubated for 30 mins by radioligand competition binding assay

Data set [11] addresses T5, Alpha-1D adrenergic receptor (Homo sapiens, UniProt P25100).
T5 sequence (P25100 whole entry): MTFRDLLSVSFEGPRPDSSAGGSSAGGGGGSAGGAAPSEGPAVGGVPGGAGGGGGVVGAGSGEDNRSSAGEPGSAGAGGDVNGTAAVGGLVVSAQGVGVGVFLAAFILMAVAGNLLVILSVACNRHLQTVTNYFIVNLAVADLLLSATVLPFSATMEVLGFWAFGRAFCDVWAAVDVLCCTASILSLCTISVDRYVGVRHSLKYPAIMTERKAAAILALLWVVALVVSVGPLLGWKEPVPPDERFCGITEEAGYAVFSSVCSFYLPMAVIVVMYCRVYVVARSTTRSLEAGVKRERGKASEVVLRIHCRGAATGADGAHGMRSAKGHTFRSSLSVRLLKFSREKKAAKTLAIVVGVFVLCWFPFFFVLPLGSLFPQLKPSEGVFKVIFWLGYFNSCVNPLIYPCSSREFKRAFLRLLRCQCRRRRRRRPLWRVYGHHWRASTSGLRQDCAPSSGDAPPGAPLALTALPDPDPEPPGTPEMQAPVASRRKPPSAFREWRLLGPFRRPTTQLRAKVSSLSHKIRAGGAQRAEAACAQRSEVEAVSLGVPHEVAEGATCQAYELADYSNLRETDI
As to the kind of experiment: biochemical.
Description: Displacement of [3H]Prazosin from human recombinant alpha 1D adrenergic receptor expressed in CHO cells incubated for 30 mins by radioligand competition binding assay

Data set [12] addresses T6, 5-hydroxytryptamine receptor 1A (Homo sapiens, UniProt P08908).
T6 sequence (P08908 whole entry): T2 sequence (whole entry)
As to the kind of experiment: biochemical.

Setting [13] is: read-out: LC50 (the source's name).

Chain of D(2) dopamine receptor (P14416 whole entry): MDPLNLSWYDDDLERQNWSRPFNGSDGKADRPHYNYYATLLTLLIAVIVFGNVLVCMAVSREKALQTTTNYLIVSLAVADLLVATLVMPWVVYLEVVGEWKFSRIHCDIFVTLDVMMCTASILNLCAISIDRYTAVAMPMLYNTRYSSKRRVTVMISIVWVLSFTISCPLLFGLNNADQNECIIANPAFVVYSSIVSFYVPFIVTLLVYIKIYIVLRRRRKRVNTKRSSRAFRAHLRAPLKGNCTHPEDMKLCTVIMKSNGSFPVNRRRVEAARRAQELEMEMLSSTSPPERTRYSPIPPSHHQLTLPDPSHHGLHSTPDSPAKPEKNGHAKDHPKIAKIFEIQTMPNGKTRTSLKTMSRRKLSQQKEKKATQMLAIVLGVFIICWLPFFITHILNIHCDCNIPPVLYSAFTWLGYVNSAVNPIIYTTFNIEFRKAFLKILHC

Consider `COc1ccccc1OCCNCC1OCCOC1(c1ccccc1)c1ccccc1` (stereo unspecified), for which the inhibition result with DU-145 [1], in the data set with PC-3 [2], in the data set on PC-3 [6] and in the data set on DU-145 [7] was “Active” in each case. For the same molecule, the Ki (as a rule, a dissociation constant, usually derived from enzyme kinetics or from competition with a known ligand) at D(2) dopamine receptor was 0.324 µM; at D(3) dopamine receptor, 0.537 µM; on D(4) dopamine receptor it was 0.275 µM; in data set [9], more than 1 µM; in data set [10], 0.0676 µM; in data set [11] it was 0.00741 µM. Besides, the Ki in [12] was 0.00398 µM. Moreover, the GI50 (as a rule, the concentration that inhibits growth by half) is 13 µM in the data set on PC-3 [3] and 18 µM with DU-145 [4]. Moreover, the TGI (commonly the concentration giving total growth inhibition) was 29 µM with PC-3 [3], 32 µM in the data set on DU-145 [4] and 50.2 µM in the data set with Fibroblast. Besides, the CC50 in the data set with PC-3 [3] (setting [13]) stood at 68 µM; in the data set with DU-145 [4] (setting [13]), 55 µM. In addition, in data set [5], growth was halved (GI50 at 48 h) at 30.5 µM. Also, the LC50 (commonly the concentration lethal to half of the exposed cells or organisms) in the data set on Fibroblast turned out to be 99.6 µM. In addition, in [8], the pKb (usually −log10 of the Kb, conventionally taken in molar units) amounted to 8.5.

The values above are taken from ChEMBL document CHEMBL4390666, “Chemical manipulations on the 1,4-dioxane ring of 5-HT1A receptor agonists lead to antagonists endowed with antitumor activity in prostate cancer cells” (Eur J Med Chem, 2019).
